# Measurements: publication PMC9006293 (Blood Advances, 2022)
# Assays:
# [1] = test system: DNIMV-specific T-cell hybridoma clones; assay: Antigen-presentation assay, DNIMV-specific clones with fresh or fixed MGAR APCs; assay type: cell-based, mouse; conditions: fresh and paraformaldehyde-fixed MGAR APCs, 48 hours, ELISA
# [2] = test system: HLA-DR molecules; conditions: FVIII-pulsed donor-derived human dendritic cells with diverse HLA-DRB1* molecules; cited from earlier work
# [3] = test system: PRCLT-specific T-cell hybridoma clones; assay: Antigen-presentation assay, PRCLT-specific clones with fresh or fixed MGAR APCs; assay type: cell-based, mouse; conditions: fresh and paraformaldehyde-fixed MGAR APCs, 48 hours, ELISA
sequence,measurement,setting,value
DNIMVTFRNQASRPY,IL-2 response of DNIMV-specific clones,[1],activated
FRNQASRPY,HLA-DR binding,[2],promiscuous pan-DR HLA-DR binding peptide
PRCLTRYYSSFVNME,IL-2 response of PRCLT-specific clones,[3],produced IL-2
